{"source": "ChEMBL document CHEMBL1201862", "about": "“PubChem BioAssay data set” (2004)", "experiment_in_all_cases": "growth of human tumour cells (NCI), 48 h", "key": {"UACC-257": {"tested_on": "UACC-257"}, "HCT-15": {"tested_on": "HCT-15"}, "NCI-H226": {"tested_on": "NCI-H226"}, "SR": {"tested_on": "SR"}, "HCT-116": {"tested_on": "HCT-116"}, "SF-295": {"tested_on": "SF-295"}, "HCC 2998": {"tested_on": "HCC 2998"}, "OVCAR-8": {"tested_on": "OVCAR-8"}, "NCI-H522": {"tested_on": "NCI-H522"}, "ACHN": {"tested_on": "ACHN"}, "NCI-H23": {"tested_on": "NCI-H23"}, "SNB-75": {"tested_on": "SNB-75"}, "HOP-62": {"tested_on": "HOP-62"}, "SW-620": {"tested_on": "SW-620"}, "NCI-H460": {"tested_on": "NCI-H460"}, "RPMI-8226": {"tested_on": "RPMI-8226"}, "SF-539": {"tested_on": "SF-539"}, "SK-MEL-5": {"tested_on": "SK-MEL-5"}, "EKVX": {"tested_on": "EKVX"}, "HL-60": {"tested_on": "HL-60"}, "A498": {"tested_on": "A498"}, "SK-MEL-2": {"tested_on": "SK-MEL-2"}, "SN12C": {"tested_on": "SN12C"}, "U-251": {"tested_on": "U-251"}, "A549": {"tested_on": "A549"}, "PC-3": {"tested_on": "PC-3"}, "SF-268": {"tested_on": "SF-268"}, "Hs-578T": {"tested_on": "Hs-578T"}, "MCF7": {"tested_on": "MCF7"}, "SK-MEL-28": {"tested_on": "SK-MEL-28"}, "KM12": {"tested_on": "KM12"}, "MOLT-4": {"tested_on": "MOLT-4"}, "K562": {"tested_on": "K562"}, "TK-10": {"tested_on": "TK-10"}, "OVCAR-5": {"tested_on": "OVCAR-5"}, "786-0": {"tested_on": "786-0"}, "OVCAR-3": {"tested_on": "OVCAR-3"}, "Malme-3M": {"tested_on": "Malme-3M"}, "CCRF-CEM": {"tested_on": "CCRF-CEM"}, "HT-29": {"tested_on": "HT-29"}, "NCI/ADR-RES": {"tested_on": "NCI/ADR-RES"}, "MDA-MB-231": {"tested_on": "MDA-MB-231"}, "LOX IMVI": {"tested_on": "LOX IMVI"}, "T47D": {"tested_on": "T47D"}, "DU-145": {"tested_on": "DU-145"}}, "note": "Values joined by “and” are separate entries in the source; they are usually repeats but may differ in a detail not shown here. Equal entries are not always repeated.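 The compound was tested at five concentrations on cells cultured in 96-well plates, with a 48-hour exposure period. GI50 = concentration required for 50% inhibition of growth.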 Active and inactive are the calls of the source. No stated cut-off is given here; in the data, active = GI50 up to about 1.1 µM and inactive = higher."}
{"smiles": "Cc1ncc([N+](=O)[O-])n1CC(O)Cn1ccnc1[N+](=O)[O-]", "note": "(stereo unspecified)", "values": [{"measurement": "GI50", "setting": "UACC-257", "value": "> 100 µM (inactive)"}, {"measurement": "GI50", "setting": "HCT-15", "value": "> 100", "unit": "µM"}, {"measurement": "GI50", "setting": "NCI-H226", "value": "> 100 µM (inactive)"}, {"measurement": "GI50", "setting": "SR", "value": "> 100 µM (inactive)"}, {"measurement": "GI50", "setting": "HCT-116", "value": "> 100 µM (inactive)"}, {"measurement": "GI50", "setting": "SF-295", "value": "> 100 µM (inactive)"}, {"measurement": "GI50", "setting": "HCC 2998", "value": "> 100 µM (inactive)"}, {"measurement": "GI50", "setting": "OVCAR-8", "value": "> 100 µM (inactive)"}, {"measurement": "GI50", "setting": "NCI-H522", "value": "> 100 µM (inactive)"}, {"measurement": "GI50", "setting": "ACHN", "value": "> 100 µM (inactive)"}, {"measurement": "GI50", "setting": "NCI-H23", "value": "> 100 µM (inactive)"}, {"measurement": "GI50", "setting": "SNB-75", "value": "> 100 µM (inactive)"}, {"measurement": "GI50", "setting": "HOP-62", "value": "> 100 µM (inactive)"}, {"measurement": "GI50", "setting": "SW-620", "value": "> 100 µM (inactive)"}, {"measurement": "GI50", "setting": "NCI-H460", "value": "> 100 µM (inactive)"}, {"measurement": "GI50", "setting": "RPMI-8226", "value": "> 100 µM (inactive)"}, {"measurement": "GI50", "setting": "SF-539", "value": "> 100 µM (inactive)"}, {"measurement": "GI50", "setting": "SK-MEL-5", "value": "> 100 µM (inactive)"}, {"measurement": "GI50", "setting": "EKVX", "value": "> 100 µM (inactive)"}, {"measurement": "GI50", "setting": "HL-60", "value": "> 100 µM (inactive)"}, {"measurement": "GI50", "setting": "A498", "value": "> 100 µM (inactive)"}, {"measurement": "GI50", "setting": "SK-MEL-2", "value": "> 100 µM (inactive)"}, {"measurement": "GI50", "setting": "SN12C", "value": "> 100 µM (inactive)"}, {"measurement": "GI50", "setting": "U-251", "value": "> 100 µM (inactive)"}, {"measurement": "GI50", "setting": "A549", "value": "> 100 µM (inactive)"}, {"measurement": "GI50", "setting": "PC-3", "value": "> 100 µM (inactive)"}, {"measurement": "GI50", "setting": "SF-268", "value": "> 100 µM (inactive)"}, {"measurement": "GI50", "setting": "Hs-578T", "value": "> 100 µM (inactive)"}, {"measurement": "GI50", "setting": "MCF7", "value": "> 100 µM (inactive)"}, {"measurement": "GI50", "setting": "SK-MEL-28", "value": "> 100 µM (inactive)"}, {"measurement": "GI50", "setting": "KM12", "value": "> 100 µM (inactive)"}, {"measurement": "GI50", "setting": "MOLT-4", "value": "> 100 µM (inactive)"}, {"measurement": "GI50", "setting": "K562", "value": "> 100 µM (inactive)"}, {"measurement": "GI50", "setting": "TK-10", "value": "> 100 µM (inactive)"}, {"measurement": "GI50", "setting": "OVCAR-5", "value": "> 100 µM (inactive)"}, {"measurement": "GI50", "setting": "786-0", "value": "> 100 µM (inactive)"}, {"measurement": "GI50", "setting": "OVCAR-3", "value": "> 100 µM (inactive)"}, {"measurement": "GI50", "setting": "Malme-3M", "value": "> 100 µM (inactive)"}, {"measurement": "GI50", "setting": "CCRF-CEM", "value": "> 100 µM (inactive)"}, {"measurement": "GI50", "setting": "HT-29", "value": "> 100 µM (inactive)"}]}
{"smiles": "NC(CN(O)N=O)C(=O)O", "note": "(stereo unspecified) [LALANOSINE]", "values": [{"measurement": "GI50", "setting": "NCI/ADR-RES", "value": "18.7 µM (inactive)"}, {"measurement": "GI50", "setting": "MDA-MB-231", "value": "87.9 µM (inactive)"}, {"measurement": "GI50", "setting": "SF-295", "value": "8.36 µM (inactive) and 8.63 µM (inactive)"}, {"measurement": "GI50", "setting": "OVCAR-8", "value": "12.5 µM (inactive) and 23.8 µM (inactive)"}, {"measurement": "GI50", "setting": "ACHN", "value": "1.42 µM (inactive) and 1.82 µM (inactive)"}, {"measurement": "GI50", "setting": "SF-539", "value": "8.63 µM (inactive)"}, {"measurement": "GI50", "setting": "HL-60", "value": "11.4 µM (inactive)"}, {"measurement": "GI50", "setting": "SK-MEL-2", "value": "> 100 µM (inactive) and 70 µM (inactive)"}, {"measurement": "GI50", "setting": "A549", "value": "268 nM (active) and 204 nM (active)"}, {"measurement": "GI50", "setting": "LOX IMVI", "value": "412 nM (active) and 333 nM (active)"}, {"measurement": "GI50", "setting": "KM12", "value": "304 nM (active) and 360 nM (active)"}, {"measurement": "GI50", "setting": "MOLT-4", "value": "40 µM (inactive) and 29.2 µM (inactive)"}, {"measurement": "GI50", "setting": "OVCAR-5", "value": "3.73 µM (inactive) and 4.13 µM (inactive)"}, {"measurement": "GI50", "setting": "T47D", "value": "87.9 µM (inactive)"}, {"measurement": "GI50", "setting": "DU-145", "value": "> 100 µM (inactive)"}, {"measurement": "GI50", "setting": "HT-29", "value": "10.1 µM (inactive) and 17.7 µM (inactive)"}]}
